According to patent publication US10294202B2, “Pyrrolidinones as herbicides” (FMC Corporation, priority 2013, dated 2019):

How the values were obtained:
[1] = system: barnyardgrass; experiment: Test A pre-/postemergence herbicide test; assay type: in vivo, Echinochloa crus-galli
Method in brief: (§1)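 Planted in loam–sand blend; treated the same day preemergence by directed soil spray, while separately grown plants at one- to two-leaf stage got postemergence spray. Compared visually with untreated controls after approximately 10 days; 100 means complete control.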

[2] = system: kochia; experiment: Test A pre-/postemergence herbicide test; assay type: in vivo, Kochia scoparia
Method in brief: as §1

[3] = system: ragweed; experiment: Test A pre-/postemergence herbicide test; assay type: in vivo, Ambrosia elatior
Method in brief: as §1

[4] = system: ryegrass, Italian; experiment: Test A pre-/postemergence herbicide test; assay type: in vivo, Lolium multiflorum
Method in brief: as §1

[5] = system: giant foxtail; experiment: Test A pre-/postemergence herbicide test; assay type: in vivo, Setaria faberii
Method in brief: as §1

[6] = system: pigweed; experiment: Test A pre-/postemergence herbicide test; assay type: in vivo, Amaranthus retroflexus
Method in brief: as §1

[7] = system: wheat; experiment: Test A pre-/postemergence herbicide test; assay type: in vivo, Triticum aestivum; details: Postemergence
Method in brief: as §1

[8] = system: corn; experiment: Test A pre-/postemergence herbicide test; assay type: in vivo, Zea mays; details: Postemergence
Method in brief: as §1

[9] = system: blackgrass; experiment: Test A postemergence herbicide test; assay type: in vivo, Alopecurus myosuroides
Method in brief: (§2)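 Blackgrass and galium grown in pots of loam soil–sand blend, treated postemergence at 2–10 cm height, one- to two-leaf stage. Plants kept in greenhouse ~10 days, then visually rated for injury against untreated controls on a 0–100 scale (0 no effect, 100 complete control).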

[10] = system: galium; experiment: Test A postemergence herbicide test; assay type: in vivo, Galium aparine
Method in brief: as §2

[11] = system: rice; experiment: Test B flooded paddy test; assay type: in vivo, Oryza sativa; details: 500 g ai/ha, Flood; scale of 0 to 100 where 0 is no effect and 100 is complete control
Method in brief: (§3)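 In-water application to pots flooded 3 cm deep, plants at 2-leaf stage. Held in greenhouse 13–15 days at constant flood depth. Scored 0–100 by eye against controls.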

[12] = system: sedge, umbrella; experiment: Test B flooded paddy test; assay type: in vivo, Cyperus difformis; details: 500 g ai/ha, Flood; scale of 0 to 100 where 0 is no effect and 100 is complete control
Method in brief: as §3

[13] = system: ducksalad; experiment: Test B flooded paddy test; assay type: in vivo, Heteranthera limosa; details: 500 g ai/ha, Flood; scale of 0 to 100 where 0 is no effect and 100 is complete control
Method in brief: as §3

[14] = system: barnyardgrass; experiment: Test B flooded paddy test; assay type: in vivo, Echinochloa crus-galli; details: 500 g ai/ha, Flood; scale of 0 to 100 where 0 is no effect and 100 is complete control
Method in brief: as §3

[15] = Postemergence, 125 g ai/ha, visual rating on 0 to 100 scale (0 no effect, 100 complete control), approx. 10 days
[16] = Postemergence, 500 g ai/ha, 0 to 100 scale (0 no effect, 100 complete control)
[17] = Preemergence, 125 g ai/ha, 0 to 100 scale where 0 is no effect and 100 is complete control
[18] = preemergence, 500 g ai/ha, 0 to 100 scale, 0 is no effect and 100 is complete control
[19] = Preemergence, 500 g ai/ha, visual rating on 0 to 100 scale (0 no effect, 100 complete control)
[20] = 125 g ai/ha, visual rating on 0 to 100 scale (0 no effect, 100 complete control), approx. 10 days
[21] = 500 g ai/ha, 0 to 100 scale (0 no effect, 100 complete control)
[22] = 125 g ai/ha, visual rating, 0 to 100 scale, 0 no effect, 100 complete control, approximately 10 days, preemergence
[23] = Postemergence, 125 g ai/ha, 0 to 100 scale, 0 is no effect, 100 is complete control
[24] = preemergence, 500 g ai/ha, 0 to 100 scale (0 no effect, 100 complete control)
[25] = preemergence, 500 g ai/ha, 0 to 100 scale
[26] = 125 g ai/ha, 0 to 100 scale, 0 is no effect, 100 is complete control

## CSc1cccc(C2CNC(=O)C2C(=O)Nc2ccc(F)c(F)c2F)c1 (stereo not drawn) [Compound 290]
[1]; [15]
  Plant response rating, Barnyardgrass: 50
[1]; [16]
  Plant response rating, Barnyardgrass: 80
[1]; [17]
  Plant response rating, Barnyardgrass: 60
[1]; [18]
  Plant response rating, Barnyardgrass: 80
[2]; [15]
  Plant response rating, Kochia: 0
[2]; [16]
  Plant response rating, Kochia: 0
[2]; [17]
  Plant response rating, Kochia: 0
[2]; [18]
  Plant response rating, Kochia: 0
[3]; [15]
  Plant response rating, Ragweed: 0
[3]; [16]
  Plant response rating, Ragweed: 0
[3]; [17]
  Plant response rating, Ragweed: 0
[3]; [18]
  Plant response rating, Ragweed: 0
[4]; [15]
  Plant response rating, Ryegrass, Italian: 0
[4]; [16]
  Plant response rating, Ryegrass, Italian: 0
[4]; [17]
  Plant response rating, Ryegrass, Italian: 0
[4]; [19]
  Ryegrass, Italian plant response rating: 0
[5]; [15]
  Plant response rating, Foxtail, Giant: 30
[5]; [16]
  Plant response rating, Foxtail, Giant: 60
[5]; [17]
  Plant response rating, Foxtail, Giant: 60
[5]; [18]
  Plant response rating, Foxtail, Giant: 80
[6]; [15]
  Plant response rating, Pigweed: 0
[6]; [16]
  Plant response rating, Pigweed: 10
[6]; [17]
  Plant response rating, Pigweed: 0
[6]; [18]
  Plant response rating, Pigweed: 0
[7]; [20]
  Plant response rating, Wheat: 0
[7]; [21]
  Plant response rating, Wheat: 0
[8]; [20]
  Plant response rating, Corn: 0
[8]; [21]
  Plant response rating, Corn: 0
[9]; [20]
  Plant response rating, Blackgrass: 0
[9]; [21]
  Plant response rating, Blackgrass: 0
[10]; [20]
  Plant response rating, Galium: 0
[10]; [21]
  Plant response rating, Galium: 0
[11]
  Plant response rating, Rice: 0
[12]
  Plant response rating, Sedge, Umbrella: 0
[13]
  Plant response rating, Ducksalad: 75
[14]
  Plant response rating, Barnyardgrass: 40

## O=C1NCC(c2cccc(C(F)F)c2)C1C(=O)Nc1ccccc1F (racemic) [Compound 163]
[1]; [22]
  Plant response rating, Barnyardgrass: 80
[1]; [23]
  Plant response rating, Barnyardgrass: 90
[1]; Postemergence, 500 g ai/ha
  Barnyardgrass plant response rating (0 to 100 scale, 0 is no effect, 100 is complete control): 90
[1]; [24]
  Plant response rating, Barnyardgrass: 90
[2]; [22]
  Plant response rating, Kochia: 0
[2]; [23]
  Plant response rating, Kochia: 0
[2]; Postemergence, 500 g ai/ha
  Kochia plant response rating (0 to 100 scale, 0 is no effect, 100 is complete control): 0
[2]; [18]
  Plant response rating, Kochia: 50
[3]; [22]
  Plant response rating, Ragweed: 0
[3]; [23]
  Plant response rating, Ragweed: 0
[3]; Postemergence, 500 g ai/ha
  Ragweed plant response rating (0 to 100 scale, 0 is no effect, 100 is complete control): 20
[3]; [18]
  Plant response rating, Ragweed: 40
[4]; [22]
  Plant response rating, Ryegrass, Italian: 0
[4]; [23]
  Plant response rating, Ryegrass, Italian: 0
[4]; Postemergence, 500 g ai/ha
  Ryegrass, Italian plant response rating (0 to 100 scale, 0 is no effect, 100 is complete control): 30
[4]; [18]
  Plant response rating, Ryegrass, Italian: 0
[5]; [22]
  Plant response rating, Foxtail, Giant: 90
[5]; [23]
  Plant response rating, Foxtail, Giant: 70
[5]; Postemergence, 500 g ai/ha
  Foxtail, Giant plant response rating (0 to 100 scale, 0 is no effect, 100 is complete control): 80
[5]; [25]
  Plant response rating, Foxtail, Giant: 90
[6]; [22]
  Plant response rating, Pigweed: 40
[6]; [23]
  Plant response rating, Pigweed: 0
[6]; Postemergence, 500 g ai/ha
  Pigweed plant response rating (0 to 100 scale, 0 is no effect, 100 is complete control): 20
[6]; [18]
  Plant response rating, Pigweed: 40
[7]; [26]
  Plant response rating, Wheat: 20
[7]; 500 g ai/ha
  Wheat plant response rating (0 to 100 scale, 0 is no effect, 100 is complete control): 60
[8]; [26]
  Plant response rating, Corn: 10
[8]; 500 g ai/ha
  Corn plant response rating (0 to 100 scale, 0 is no effect, 100 is complete control): 40
[9]; [26]
  Plant response rating, Blackgrass: 50
[9]; 500 g ai/ha
  Blackgrass plant response rating (0 to 100 scale, 0 is no effect, 100 is complete control): 60
[10]; [26]
  Plant response rating, Galium: 20
[10]; 500 g ai/ha
  Galium plant response rating (0 to 100 scale, 0 is no effect, 100 is complete control): 60
[11]
  Plant response rating, Rice: 15
[12]
  Plant response rating, Sedge, Umbrella: 0
[13]
  Plant response rating, Ducksalad: 100
[14]
  Plant response rating, Barnyardgrass: 90

## O=C1NCC(c2ccc3c(c2)OC(F)(F)O3)C1C(=O)Nc1ccc(F)c(F)c1F (racemic) [Compound 162]
[1]; [22]
  Plant response rating, Barnyardgrass: 90
[1]; [23]
  Plant response rating, Barnyardgrass: 70
[1]; Postemergence, 500 g ai/ha
  Barnyardgrass plant response rating (0 to 100 scale, 0 is no effect, 100 is complete control): 90
[1]; [24]
  Plant response rating, Barnyardgrass: 90
[2]; [22]
  Plant response rating, Kochia: 50
[2]; [23]
  Plant response rating, Kochia: 40
[2]; Postemergence, 500 g ai/ha
  Kochia plant response rating (0 to 100 scale, 0 is no effect, 100 is complete control): 70
[2]; [18]
  Plant response rating, Kochia: 60
[3]; [22]
  Plant response rating, Ragweed: 0
[3]; [23]
  Plant response rating, Ragweed: 0
[3]; Postemergence, 500 g ai/ha
  Ragweed plant response rating (0 to 100 scale, 0 is no effect, 100 is complete control): 40
[3]; [18]
  Plant response rating, Ragweed: 60
[4]; [22]
  Plant response rating, Ryegrass, Italian: 0
[4]; [23]
  Plant response rating, Ryegrass, Italian: 0
[4]; Postemergence, 500 g ai/ha
  Ryegrass, Italian plant response rating (0 to 100 scale, 0 is no effect, 100 is complete control): 50
[4]; [18]
  Plant response rating, Ryegrass, Italian: 50
[5]; [22]
  Plant response rating, Foxtail, Giant: 80
[5]; [23]
  Plant response rating, Foxtail, Giant: 90
[5]; Postemergence, 500 g ai/ha
  Foxtail, Giant plant response rating (0 to 100 scale, 0 is no effect, 100 is complete control): 90
[5]; [25]
  Plant response rating, Foxtail, Giant: 90
[6]; [22]
  Plant response rating, Pigweed: 60
[6]; [23]
  Plant response rating, Pigweed: 20
[6]; Postemergence, 500 g ai/ha
  Pigweed plant response rating (0 to 100 scale, 0 is no effect, 100 is complete control): 70
[6]; [18]
  Plant response rating, Pigweed: 80
[7]; [26]
  Plant response rating, Wheat: 0
[7]; 500 g ai/ha
  Wheat plant response rating (0 to 100 scale, 0 is no effect, 100 is complete control): 50
[8]; [26]
  Plant response rating, Corn: 30
[8]; 500 g ai/ha
  Corn plant response rating (0 to 100 scale, 0 is no effect, 100 is complete control): 60
[9]; [26]
  Plant response rating, Blackgrass: 50
[9]; 500 g ai/ha
  Blackgrass plant response rating (0 to 100 scale, 0 is no effect, 100 is complete control): 50
[10]; [26]
  Plant response rating, Galium: 30
[10]; 500 g ai/ha
  Galium plant response rating (0 to 100 scale, 0 is no effect, 100 is complete control): 70
[11]
  Plant response rating, Rice: 0
[12]
  Plant response rating, Sedge, Umbrella: 0
[13]
  Plant response rating, Ducksalad: 100
[14]
  Plant response rating, Barnyardgrass: 75

## O=C1NCC(c2ccc(Br)c(Br)c2)C1C(=O)Nc1ccccc1Cl (stereo not drawn) [Compound 343]
[1]; [15]
  Plant response rating, Barnyardgrass: 0
[1]; [16]
  Plant response rating, Barnyardgrass: 30
[1]; [17]
  Plant response rating, Barnyardgrass: 20
[1]; [19]
  Barnyardgrass plant response rating: 80
[2]; [15]
  Plant response rating, Kochia: 0
[2]; [17]
  Plant response rating, Kochia: 0
[2]; [19]
  Kochia plant response rating: 0
[3]; [15]
  Plant response rating, Ragweed: 0
[3]; [17]
  Plant response rating, Ragweed: 0
[3]; [19]
  Ragweed plant response rating: 0
[4]; [15]
  Plant response rating, Ryegrass, Italian: 0
[4]; [17]
  Plant response rating, Ryegrass, Italian: 0
[4]; [19]
  Ryegrass, Italian plant response rating: 0
[5]; [15]
  Plant response rating, Foxtail, Giant: 30
[5]; [16]
  Plant response rating, Foxtail, Giant: 60
[5]; [17]
  Plant response rating, Foxtail, Giant: 60
[5]; [19]
  Foxtail, Giant plant response rating: 80
[6]; [15]
  Plant response rating, Pigweed: 0
[6]; [17]
  Plant response rating, Pigweed: 0
[6]; [19]
  Pigweed plant response rating: 0
[7]; [20]
  Plant response rating, Wheat: 0
[8]; [20]
  Plant response rating, Corn: 0
[8]; [21]
  Plant response rating, Corn: 0
[9]; [20]
  Plant response rating, Blackgrass: 0
[9]; [21]
  Plant response rating, Blackgrass: 0
[10]; [20]
  Plant response rating, Galium: 0
[11]
  Plant response rating, Rice: 0
[12]
  Plant response rating, Sedge, Umbrella: 0
[13]
  Plant response rating, Ducksalad: 0
[14]
  Plant response rating, Barnyardgrass: 0
